Laboratory results published in the NIST ThermoML archive (doi:10.1021/acs.jced.8b01157).

Test: mn = molality of the nth substance listed, in mol/kg
Conditions: 100 kPa, Liquid; for speed of sound: Frequency=3 MHz, Single path-length method; for mass density: Vibrating tube method

N.O=P(O)(O)O [ammonium dihydrogen phosphate] + O
Conditions	mass density, 288.15 K [kg/m3]	mass density, 298.15 K [kg/m3]	mass density, 308.15 K [kg/m3]	mass density, 318.15 K [kg/m3]	speed of sound, 288.15 K [m/s]	speed of sound, 298.15 K [m/s]	speed of sound, 308.15 K [m/s]	speed of sound, 318.15 K [m/s]
m1 = 0.5	1030	1026.45	1023.33	1019.74	1507.3	1534.9	1555.9	1570.9
m1 = 1	1057.62	1054.22	1050.98	1046.48	1544.3	1569.7	1588.9	1602.6
m1 = 1.5	1082.56	1079.6	1075.85	1071.76	1579	1602.4	1619.9	1631.1

N.N.O=P(O)(O)O [diammonium hydrogen phosphate] + O
Conditions	mass density, 288.15 K [kg/m3]	mass density, 298.15 K [kg/m3]	mass density, 308.15 K [kg/m3]	mass density, 318.15 K [kg/m3]	speed of sound, 288.15 K [m/s]	speed of sound, 298.15 K [m/s]	speed of sound, 308.15 K [m/s]	speed of sound, 318.15 K [m/s]
m1 = 0.5	1032.61	1030.71	1026.1	1022.85	1517.7	1544.3	1564.8	1581.3
m1 = 1	1066.4	1064.03	1060.22	1055.59	1572	1597.9	1614.1	1628.3
m1 = 1.5	1097.53	1095.18	1090.11	1086.19	1629.6	1650.4	1664.4	1676.6
